This note sets out measurements from PubChem BioAssay (NCI).

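1) Cells in 96-well plates. 2) Compound, 48 h, 5 concentrations. 3) Linear interpolation between surrounding doses. 4) Unreached endpoint = highest concentration. Abbreviation: GI50, concentration required for 50% inhibition of growth. TGI: total growth inhibition.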 Some results are limits rather than exact numbers.

Test systems include MDA-MB-435; MCF7 breast; MDA-MB-231 breast; HS 578T breast; T-47D breast.
What all share (assay): DTP human tumour cell line panel, 48 h

As for `Clc1ccc(-c2nc3c(-c4ccc(Cl)cc4)nc(-c4ccccc4)cn3c2-c2ccc(Cl)cc2)cc1`, the GI50 (in general, the concentration at which growth is held to half of that of the control) was greater than 50 µM with MDA-MB-435; greater than 50 µM in the assay with MCF7 breast; 27.9 µM in the assay on MDA-MB-231 breast; 10.8 µM with HS 578T breast; greater than 50 µM in the assay with T-47D breast. Besides, the TGI in the assay on MDA-MB-435, with MCF7 breast, in the assay on MDA-MB-231 breast, in the assay on HS 578T breast and with T-47D breast was greater than 50 µM in each case.

Regarding `C=C1CC[C@@H]2C(C)(C)[C@@H](O)CC[C@@]2(C)[C@@H]1COc1ccc2ccc(=O)oc2c1`, the GI50 in the assay with MDA-MB-435 was 13.6 µM; with MCF7 breast, 8.02 µM; in the assay with MDA-MB-231 breast, 15.4 µM; in the assay on HS 578T breast, 15.4 µM; in the assay with T-47D breast, 5.81 µM. Also, the TGI (usually the concentration at which net growth stops) in the assay with MDA-MB-435 amounted to 27.6 µM; in the assay with MCF7 breast, 24.7 µM; in the assay on MDA-MB-231 breast it was 31.8 µM; in the assay on HS 578T breast it was 49.5 µM; with T-47D breast it was 32.5 µM.

Regarding `CSC1=Nc2c(c(C)c(-c3ccccc3)n2COC(CO)CO)C2=NC(=O)C(C)N12` (stereo not given), the GI50 in the assay on MDA-MB-435, with MCF7 breast, in the assay on MDA-MB-231 breast, in the assay with HS 578T breast and in the assay on T-47D breast was greater than 100 µM in each case. The TGI in the assay with MDA-MB-435, with MCF7 breast, in the assay on MDA-MB-231 breast, in the assay on HS 578T breast and in the assay with T-47D breast was greater than 100 µM each time.

In the case of `O=C1C2=C(C(=O)c3c(O)ccc(O)c31)N(c1ccc(N3CCOCC3)nc1)Cc1ccccc1O2`, the GI50 in the assay on MDA-MB-435 is 0.321 µM; in the assay with MCF7 breast, 0.161 µM; in the assay with MDA-MB-231 breast, 0.243 µM; in the assay with HS 578T breast it was 1.52 µM; with T-47D breast it was 0.205 µM. For the same compound, the total growth inhibition concentration (TGI) in the assay on MDA-MB-435 is 1.05 µM; in the assay on MCF7 breast, 0.658 µM; in the assay on MDA-MB-231 breast, 0.814 µM; in the assay with HS 578T breast it was greater than 55.4 µM; with T-47D breast it was 0.9 µM.

Turning to `CCCCCCN(CCCCCC)CCCNc1nccc2ccccc12`, the GI50 was 1.57 µM with MDA-MB-435, 1.56 µM with MCF7 breast, 1.44 µM in the assay on MDA-MB-231 breast and 2.13 µM in the assay with HS 578T breast. The TGI with MDA-MB-435 was found to be 3.06 µM; in the assay on MCF7 breast it was 3.46 µM; with MDA-MB-231 breast, 2.91 µM; in the assay with HS 578T breast, 5.66 µM.

For `CCCc1cc(=O)oc2c(C(=O)CC(C)C)c(O)c(CC=C(C)C)c(O)c12`, the GI50 with MDA-MB-435 was 11.8 µM; in the assay with MCF7 breast, 7.83 µM; in the assay with MDA-MB-231 breast, 9.81 µM; with HS 578T breast it was 13.4 µM; in the assay with T-47D breast it was 9.33 µM. In addition, the concentration for total growth inhibition (TGI) is 43.1 µM with MDA-MB-435; greater than 50 µM in the assay with MCF7 breast; 24.7 µM in the assay with MDA-MB-231 breast; greater than 50 µM in the assay on HS 578T breast; 40.3 µM with T-47D breast.

Take `Fc1ccc(-c2nc(-c3nc4ccc(Cl)cc4[nH]3)cc3c2[nH]c2ccccc23)cc1`: the GI50 is 3.59 µM in the assay with MDA-MB-435; 3.27 µM in the assay with MCF7 breast; 2.88 µM in the assay on MDA-MB-231 breast; 3.38 µM in the assay with HS 578T breast; 2.68 µM in the assay on T-47D breast. In addition, the total growth inhibition concentration (TGI) came to 14.3 µM with MDA-MB-435; 16.6 µM with MCF7 breast; 13.6 µM with MDA-MB-231 breast; 57 µM in the assay on HS 578T breast; 20.9 µM with T-47D breast.

Turning to `COc1cc(CNC(=O)/C=C/C=C/c2ccc3c(c2)OCO3)ccc1OCc1cn(-c2ccc(Cl)c(Cl)c2)nn1`, the GI50 is 2 µM in the assay with MDA-MB-435; 0.889 µM in the assay on MCF7 breast; 1.95 µM with MDA-MB-231 breast; 2.53 µM in the assay with HS 578T breast; 1.17 µM in the assay with T-47D breast. For the same compound, the total growth inhibition concentration (TGI) with MDA-MB-435 was 4.75 µM; with MCF7 breast it was 3.23 µM; in the assay with MDA-MB-231 breast, 5 µM; in the assay on HS 578T breast, 8.56 µM; in the assay on T-47D breast it was 3.49 µM.

Regarding `CCCNc1nc(N(C)O)nc(N(C)O)n1`, the GI50 with MDA-MB-435 is 4.95 µM; in the assay on MCF7 breast, 2.44 µM; with MDA-MB-231 breast, 5.31 µM; with HS 578T breast it was 6.51 µM; in the assay with T-47D breast it was 3.9 µM. Besides, the TGI in the assay with MDA-MB-435, in the assay with MCF7 breast, in the assay on MDA-MB-231 breast, in the assay with HS 578T breast and with T-47D breast was greater than 100 µM in each case.

On to `COc1ccc(CN2c3ccccc3Sc3ccccc32)cc1F`, for which the GI50 is 0.198 µM with MDA-MB-435, 0.464 µM in the assay on MCF7 breast, 0.917 µM in the assay on MDA-MB-231 breast and 0.458 µM in the assay with HS 578T breast. In addition, the TGI in the assay on MDA-MB-435 is 0.469 µM; in the assay on MCF7 breast it was greater than 100 µM; in the assay with MDA-MB-231 breast, greater than 88.1 µM; with HS 578T breast, greater than 100 µM.

As for `CCN1CCC[C@H]1c1cc(O)c2c(c1OC)C[C@H]1C[C@H]3[C@H](N)C(=O)C(C(N)=O)=C(O)[C@@]3(O)C(=O)C1=C2O`, the GI50 with MDA-MB-435 was 0.0917 µM; with MCF7 breast, 0.241 µM; in the assay on MDA-MB-231 breast, 0.0431 µM; in the assay with HS 578T breast it was 0.0495 µM; in the assay with T-47D breast, 0.0448 µM. In addition, the total growth inhibition concentration (TGI) in the assay with MDA-MB-435 was 2.34 µM; in the assay on MCF7 breast, 6.1 µM; with MDA-MB-231 breast, 0.717 µM; in the assay with HS 578T breast it was 1.12 µM; in the assay with T-47D breast, 1.47 µM.

With `COc1ccc(Nc2c3ccccc3nc3c2c2ccccc2n3C)cc1`, the GI50 is 30.5 µM in the assay with MDA-MB-435, 28.3 µM with MCF7 breast, 34.8 µM in the assay with MDA-MB-231 breast and 46.4 µM in the assay on HS 578T breast. In addition, the TGI was greater than 100 µM in the assay on MDA-MB-435, 86.3 µM in the assay on MCF7 breast, greater than 100 µM with MDA-MB-231 breast and greater than 100 µM with HS 578T breast.

Turning to `Cc1ccc(/C=C(\C#N)n2nnc3cc(Cl)c(Cl)cc32)cc1`, the GI50 in the assay on MDA-MB-435 is 0.909 µM; in the assay with MCF7 breast, 1.88 µM; in the assay with MDA-MB-231 breast it was 2.7 µM; in the assay with HS 578T breast it was 2.83 µM. The TGI in the assay on MDA-MB-435 was 6.8 µM; with MCF7 breast, greater than 100 µM; in the assay with MDA-MB-231 breast, 17.2 µM; in the assay with HS 578T breast, greater than 100 µM.

For `O=C(Oc1cccnc1)c1ccccc1Nc1ccnc(C(F)(F)F)c1`, the GI50 in the assay with MCF7 breast was 0.0865 µM; in the assay with MDA-MB-231 breast, 0.233 µM; in the assay on HS 578T breast, 4.13 µM; in the assay on T-47D breast, 23 µM. For the same compound, the TGI was greater than 45.5 µM in the assay on MCF7 breast, greater than 62.2 µM in the assay on MDA-MB-231 breast, greater than 100 µM with HS 578T breast and 51.5 µM in the assay with T-47D breast.
